Test results taken from ChEMBL document CHEMBL1134909, “A 5-fluorodeoxyuridine prodrug as targeted therapy for prostate cancer” (Bioorg Med Chem Lett, 2002).
*1 amine or outer side, *2 acyl side, *3 side chain or, on linkers, in order; H or OH if unused. Where a SMILES comes first, the peptide text is derived from it. [ ]: non-standard residue; d: D form. The star is where a group is joined. X1 = O=c1[nH]c(=O)n([C@H]2C[C@H](O)[C@@H](CO*)O2)cc1F; Morpholide = C1CN(*)CCO1; Aib = CC(C)(N)C(=O)O; CO = O=C([*:1])[*:2]

Legend:
LNCaP = assay: Cytotoxic concentration in prostate specific antigen (PSA) producing human LNCaP cells; type: functional, cell-based
TSU = assay: Cytotoxic concentration in non prostate specific antigen (PSA) producing human TSU cells; type: functional, cell-based

With `CC(C)C[C@H](NC(=O)[C@H](CCCCN)NC(=O)[C@H](CO)NC(=O)[C@H](CO)NC(=O)[C@H](Cc1c[nH]cn1)NC(=O)N1CCOCC1)C(=O)N[C@@H](CCC(N)=O)C(=O)N[C@@H](CC(C)C)C(=O)NC(C)(C)C(=O)OC[C@H]1O[C@@H](n2cc(F)c(=O)[nH]c2=O)C[C@@H]1O` ({Morpholide-CO}-HSSKLQL[Aib]-X1) the IC50 (LNCaP) was 0.117 µM and the IC50 (TSU) was 7.2 µM.

`O=c1[nH]c(=O)n([C@H]2C[C@H](O)[C@@H](CO)O2)cc1F` [FLOXURIDINE] was tested, and the IC50 (LNCaP) was 0.0692 µM and the IC50 (TSU) was 0.058 µM.
